According to US8853392B2, “Benzamide mGluR5 positive allosteric modulators and methods of making and using same” (Vanderbilt University, priority 2007, dated 2014):
Read-outs that look alike come from different tables or passages of the source.

Target: T1, rat mGluR5 (Rattus norvegicus, UniProt P31424)
T1 construct: expressed in transfected cells; host or cells: human embryonic kidney (HEK) cells
Test: potentiation of mGluR5 response to glutamate, Ca2+ fluorescence (FDSS) in HEK cells transfected with rat mGluR5
Assay type: cell-based
Details: for EC50: read-out: EC50
Experimental: Human embryonic kidney (HEK) cells transfected with rat mGluR5 were plated in clear bottom assay plates for assay in a Functional Drug Screening System (FDSS). The cells were loaded with a Ca^2+-sensitive fluorescent dye (e.g., Fluo-4), and the plates were washed and placed in the FDSS instrument. After establishment of a fluorescence baseline for twelve seconds, the compounds of the present invention were added to the cells, and the response in cells was measured. Five minutes later, an mGluR5 agonist (e.g., glutamate, 3,5-dihydroxyphenylglycine, or quisqualate) was added to the cells, and the response of the cells was measured. Potentiation of the agonist response of mGluR5 by the compounds in the present invention was observed as an increase in response to non-maximal concentrations of agonist (here, glutamate) in the presence of compound compared to the response to agonist in the absence of compound.
The above described assay operated in two modes. In the first mode, a range of concentrations of the present compounds were added to cells, followed by a single fixed concentration of agonist. If a compound acted as a potentiator, an EC50 value for potentiation and a maximum extent of potentiation by the compound at this concentration of agonist was determined by non-linear curve fitting. In the second mode, several fixed concentrations of the present compounds were added to various wells on a plate, followed by a range of concentrations of agonist for each concentration of present compound; the EC50 values for the agonist at each concentration of compound were determined by non-linear curve fitting. A decrease in the EC50 value of the agonist with increasing concentrations of the present compounds (a leftward shift of the agonist concentration-response curve) is an indication of the degree of mGluR5 potentiation at a given concentration of the present compound. An increase in the EC50 value of the agonist with increasing concentrations of the present compounds (a rightward shift of the agonist concentration-response curve) is an indication of the degree of mGluR5 antagonism at a given concentration of the present compound. The second mode also indicates whether the present compounds also affect the maximum response to mGluR5 to agonists.
Human embryonic kidney (HEK) cells transfected with rat mGluR5 were plated in clear-bottomed, poly-D-lysine-coated assay plates in glutamate-glutamine-free medium growth and incubated overnight at 37° C. in 5% CO2. The following day, cells were loaded with 2 μM calcium indicator dye, fluo-4 AM, for 1 h at 37° C. Dye was removed and replaced with assay buffer containing 1× Hanks balanced salt solution (Invitrogen, Carlsbad, Calif.), 20 mM HEPES, and 2.5 mM probenecid, pH 7.4. Cell plates were then loaded into the Functional Drug Screening System 6000 (FDSS 6000, Hamamatsu, Japan). After establishment of a fluorescence baseline for twelve seconds, the compounds of the present invention were added to the cells, and the response in cells was measured. Five minutes later, an mGluR5 agonist (e.g., glutamate, 3,5-dihydroxyphenylglycine, or quisqualate) was added to the cells, and the response of the cells was measured during a 1 minute incubation with agonists. Typically, the effect of test compounds of the present invention was on an EC20 concentration of glutamate was measured. All test compounds were dissolved and diluted in 100% DMSO and then serially diluted into assay buffer for a 2.5× stock in 0.25% DMSO; stock compounds were then added to the assay for a final DMSO concentration of 0.1%. Calcium fluorescence measures were recorded as fold over basal fluorescence; raw data was then normalized to the maximal response to agonist. Potentiation of the agonist response of mGluR5 by the compounds in the present invention was observed as an increase in response to non-maximal concentrations of agonist (here, glutamate) in the presence of compound compared to the response to agonist in the absence of compound. […]

[1] = Table 1, EC50 for potentiating the mGluR5 receptor, unit inferred
[2] = HEK293, read-out: % Glu Max, maximum extent of potentiation, normalized to maximal response to glutamate, SAR tables
[3] = potentiation of glutamate response, HEK cells transfected with rat mGluR5, SAR tables
[4] = HEK293, maximum extent of potentiation, normalized to maximal response to glutamate, SAR tables, read-out: % Glu Max

T1 sequence (P31424 21-1203): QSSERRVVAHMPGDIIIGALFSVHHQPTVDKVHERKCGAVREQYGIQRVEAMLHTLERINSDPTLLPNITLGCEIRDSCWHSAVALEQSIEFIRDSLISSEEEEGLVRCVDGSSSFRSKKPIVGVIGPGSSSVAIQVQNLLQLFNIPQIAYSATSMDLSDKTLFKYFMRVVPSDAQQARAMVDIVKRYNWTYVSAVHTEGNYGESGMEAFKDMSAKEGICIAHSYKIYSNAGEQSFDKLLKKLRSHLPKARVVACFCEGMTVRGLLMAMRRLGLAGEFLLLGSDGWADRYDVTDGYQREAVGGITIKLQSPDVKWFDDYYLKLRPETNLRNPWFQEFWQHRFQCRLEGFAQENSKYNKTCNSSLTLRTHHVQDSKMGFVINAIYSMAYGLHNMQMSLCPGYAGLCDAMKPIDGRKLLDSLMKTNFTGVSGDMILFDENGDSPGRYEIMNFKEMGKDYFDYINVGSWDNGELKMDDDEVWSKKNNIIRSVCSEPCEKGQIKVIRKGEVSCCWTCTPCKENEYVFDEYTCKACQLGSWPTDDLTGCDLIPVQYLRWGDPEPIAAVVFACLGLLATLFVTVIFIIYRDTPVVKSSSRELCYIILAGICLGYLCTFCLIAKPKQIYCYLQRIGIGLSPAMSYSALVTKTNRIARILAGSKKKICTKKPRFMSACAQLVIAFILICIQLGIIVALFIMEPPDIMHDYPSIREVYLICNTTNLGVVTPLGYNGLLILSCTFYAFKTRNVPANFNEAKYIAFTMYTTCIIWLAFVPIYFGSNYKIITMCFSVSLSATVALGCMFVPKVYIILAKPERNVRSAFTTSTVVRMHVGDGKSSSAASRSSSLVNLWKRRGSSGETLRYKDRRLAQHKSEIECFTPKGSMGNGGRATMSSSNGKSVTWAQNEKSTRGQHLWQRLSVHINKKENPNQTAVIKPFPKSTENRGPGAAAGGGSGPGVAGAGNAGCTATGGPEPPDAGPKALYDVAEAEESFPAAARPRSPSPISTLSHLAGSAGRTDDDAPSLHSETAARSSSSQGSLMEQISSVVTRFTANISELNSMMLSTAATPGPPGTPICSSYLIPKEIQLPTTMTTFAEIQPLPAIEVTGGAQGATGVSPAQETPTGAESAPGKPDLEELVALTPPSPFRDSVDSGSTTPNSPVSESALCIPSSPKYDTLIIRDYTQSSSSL

| EC50 [1] | EC50 [3] | Emax [4] | Structure (SMILES) | Emax [2] |
| --- | --- | --- | --- | --- |
| 212 nM |  |  | O=C(c1ccc(C#Cc2ccccc2)cc1)N1CCC(NC2CCC2)CC1 [(4-(cyclobutylamino)piperidin-1-yl)(4-(phenylethynyl)phenyl)methanone] |  |
| 78 nM |  |  | O=C(c1ccc(C#Cc2ccccc2)cc1)N1CCC(NC2CCCCC2)CC1 [(4-(cyclohexylamino)piperidin-1-yl)(4-(phenylethynyl)phenyl)methanone] |  |
| 2790 nM |  |  | O=C(c1ccc(C#Cc2ccccc2)cc1)N1CCC(NCC2CC2)CC1 [(4-(cyclopropylmethylamino)piperidin-1-yl)(4-(phenylethynyl)phenyl)methanone] |  |
| 59.5 nM |  |  | CCCC(C)NC1CCN(C(=O)c2ccc(C#Cc3ccccc3)cc2)CC1 (stereo not drawn) [(4-(pentan-2-ylamino)piperidin-1-yl)(4-(phenylethynyl)phenyl)methanone] |  |
| 113 nM |  |  | O=C(c1ccc(C#Cc2ccccc2)cc1)N1CCC(N2CCN(c3ccncc3)CC2)CC1 [(4-(phenylethynyl)phenyl)(4-(4-(pyridin-4-yl)piperazin-1-yl)piperidin-1-yl)methanone] |  |
| 2920 nM |  |  | O=C(c1ccc(C#Cc2ccccc2)cc1)N1CCN(c2ccccn2)CC1 [(4-(phenylethynyl)phenyl)(4-(pyridin-2-yl)piperazin-1-yl)methanone] |  |
| 3680 nM |  |  | O=C(c1ccc(C#Cc2ccccc2)cc1)N1CCN(c2ccncc2)CC1 [(4-(phenylethynyl)phenyl)(4-(pyridin-4-yl)piperazin-1-yl)methanone] |  |
| 3730 nM |  |  | O=C(c1ccc(C#Cc2ccccc2)cc1)N1CCC(N2CCCC2)CC1 [(4-(phenylethynyl)phenyl)(4-(pyrrolidin-1-yl)piperidin-1-yl)methanone] |  |
| 2060 nM |  |  | O=C(c1ccc(C#Cc2ccccc2)cc1)N1CCN(c2ccccc2)CC1 [(4-(phenylethynyl)phenyl)(4-phenylpiperazin-1-yl)methanone] |  |
| 4790 nM |  |  | O=C(c1ccc(C#Cc2ccccc2)cc1)N1CCNCC1 [(4-(phenylethynyl)phenyl)(piperazin-1-yl)methanone] |  |
| 3660 nM |  |  | O=C(c1ccc(C#Cc2ccccc2)cc1)N1CCC(O)(c2ccccc2)CC1 [(4-hydroxy-4-phenylpiperidin-1-yl)(4-(phenylethynyl)phenyl)methanone] |  |
| 1190 nM |  |  | CC(C)N1CCN(C(=O)c2ccc(C#Cc3ccccc3)cc2)CC1 [(4-isopropylpiperazin-1-yl)(4-(phenylethynyl)phenyl)methanone] |  |
| 166 nM |  |  | CN1CCN(C(=O)c2ccc(C#Cc3ccccc3)cc2)CC1 [(4-methylpiperazin-1-yl)(4-(phenylethynyl)phenyl)methanone] |  |
| 1970 nM |  |  | O=C(c1ccc(/C=C/c2ccccc2)cc1)N1CCC(O)CC1 [(E)-(4-hydroxypiperidin-1-yl)(4-styrylphenyl)methanone] |  |
| 34.9 nM |  |  | C[C@@H](CNC(=O)c1ccc(C#Cc2ccccc2)cc1)c1ccccc1 [(R)-4-(phenylethynyl)-N-(2-phenylpropyl)benzamide] |  |
| 129 nM |  |  | C[C@H](NC1CCN(C(=O)c2ccc(C#Cc3ccccc3)cc2)CC1)C1CCCCC1 [(S)-(4-(1-cyclohexylethylamino)piperidin-1-yl)(4-(phenylethynyl)phenyl)methanone] |  |
| 1030 nM |  |  | CCN1CCC[C@H]1CNC(=O)c1ccc(C#Cc2ccccc2)cc1 [(S)-N-((1-ethylpyrrolidin-2-yl)methyl)-4-(phenylethynyl)benzamide] |  |
| 593 nM |  |  | O=C(c1ccc(C#Cc2ccccc2)cc1)N1CCC2CCCCC2C1 (stereo not drawn) [(octahydroisoquinolin-2(1H)-yl)(4-(phenylethynyl)phenyl)methanone] |  |
| 314 nM | 212 nM | 67.3% | O=C(c1ccc(C#Cc2ccccc2)cc1)N1CC(O)C1 [Compound 9a, (3-hydroxyazetidin-1-yl)(4-(phenylethynyl)phenyl)methanone] |  |
| 119 nM | 89 nM | 82% | CC1(O)CN(C(=O)c2ccc(C#Cc3ccccc3)cc2)C1 [Compound 9b, (3-hydroxy-3-methylazetidin-1-yl)(4-(phenylethynyl)phenyl)methanone] |  |
| 500 nM | 423 nM | 59.8% | CCCC1(O)CN(C(=O)c2ccc(C#Cc3ccccc3)cc2)C1 [Compound 9c, (3-hydroxy-3-propylazetidin-1-yl)(4-(phenylethynyl)phenyl)methanone] |  |
| 1710 nM | 1470 nM | 43.7% | O=C(c1ccc(C#Cc2ccccc2)cc1)N1CC(O)(c2cccs2)C1 [Compound 9d, (3-hydroxy-3-(thiophen-2-yl)azetidin-1-yl)(4-(phenylethynyl)phenyl)methanone] |  |
| 28.1 nM | 27.3 nM | 80% | O=C(c1ccc(C#Cc2ccccc2F)cc1)N1CCC(O)CC1 [Compound 19a, (4-((2-fluorophenyl)ethynyl)phenyl)(4-hydroxypiperidin-1-yl)methanone] |  |
| 3.25 nM | 3.25 nM | 77% | O=C(c1ccc(C#Cc2cccc(F)c2)cc1)N1CCC(O)CC1 [Compound 19b, (4-((3-fluorophenyl)ethynyl)phenyl)(4-hydroxypiperidin-1-yl)methanone] |  |
| 15.2 nM | 14.7 nM | 63% | O=C(c1ccc(C#Cc2ccc(F)cc2)cc1)N1CCC(O)CC1 [Compound 19c, (4-((4-fluorophenyl)ethynyl)phenyl)(4-hydroxypiperidin-1-yl)methanone] |  |
| 73.9 nM | 68.7 nM | 52% | O=C(c1ccc(C#Cc2ccc(F)c(F)c2)cc1)N1CCC(O)CC1 [Compound 19d, (4-((3,4-difluorophenyl)ethynyl)phenyl)(4-hydroxypiperidin-1-yl)methanone] |  |
| 1000 nM | 593 nM | 67% | O=C(c1ccc(C#Cc2cc(F)cc(F)c2)cc1)N1CCC(O)CC1 [Compound 19e, (4-((3,5-difluorophenyl)ethynyl)phenyl)(4-hydroxypiperidin-1-yl)methanone] |  |
| 832 nM | 500 nM | 76% | Cc1cc(C#Cc2ccc(C(=O)N3CCC(O)CC3)cc2)ccc1F [Compound 19f, (4-((4-fluoro-3-methylphenyl)ethynyl)phenyl)(4-hydroxypiperidin-1-yl)methanone] |  |

| Structure (SMILES) | EC50 [1] | EC50 [3] | Emax [4] | Emax [2] |
| --- | --- | --- | --- | --- |
| CC1(O)CCN(C(=O)c2ccc(C#Cc3ccccc3)cc2)CC1 [Compound 7a, (4-hydroxy-4-methylpiperidin-1-yl)(4-(phenylethynyl)phenyl)methanone] | 39.4 nM | 3.5 nM |  | 82.5% |
| CC(C)C1(O)CCN(C(=O)c2ccc(C#Cc3ccccc3)cc2)CC1 [Compound 7c, (4-hydroxy-4-isopropylpiperidin-1-yl)(4-(phenylethynyl)phenyl)methanone] | 1800 nM | 1770 nM |  | 89.1% |
| O=C(c1ccc(C#Cc2ccccc2)cc1)N1CCC(O)(c2cccs2)CC1 [Compound 7d, (4-hydroxy-4-(thiophen-2-yl)piperidin-1-yl)(4-(phenylethynyl)phenyl)methanone] | 1070 nM | 1000 nM |  | 95% |
| O=C(c1ccc(C#Cc2ccccc2)cc1)N1CCC(O)(c2ccc(F)cc2)CC1 [Compound 7e] |  | 1190 nM |  | 87% |
| O=C(c1ccc(C#Cc2ccccc2)cc1)N1CCC(O)(c2cccc(F)c2)CC1 [Compound 7f] |  | 1600 nM |  | 92% |
| COc1ccc(C2(O)CCN(C(=O)c3ccc(C#Cc4ccccc4)cc3)CC2)cc1 [Compound 7g] |  | 2450 nM |  | 91% |
